This is an account of results in the supplement of paper PMC10627819.

Structures are written as SMILES.

Common to all, as to test: Bliss interaction score (quartile over a dose matrix) (fitness difference); higher = more antagonism (negative = synergy)
Experiment [1] concerns B. subtilis 168. The procedure, abridged:
(§1)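 OD595 was read at entry into stationary phase and expressed relative to the robust mean of the no-drug wells on the same plate, capped at 1. The resulting ratio is the fitness value. The Bliss score, observed fitness minus product-based expected fitness with single-drug fitness inferred from combinations, is summarised by quartiles over technical, biological and donor/recipient replicates.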

In experiment [2] the test system is S. aureus DSM 20231. The procedure, abridged:
as §1

The test system of experiment [3] is S. aureus Newman. The procedure, abridged: as §1
Experiment [4] deals with S. pneumoniae D39V. Put shortly: as §1
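Also: first quartile when negative (synergy) and third quartile when positive (antagonism).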

As to `C[C@H]1COc2c(N3CCN(C)CC3)c(F)cc3c(=O)c(C(=O)O)cn1c23` [Levofloxacin] + Oc1cc(Cl)ccc1Oc1ccc(Cl)cc1Cl [Triclosan], the Bliss interaction score in experiment [1] is 0.0373; in experiment [2], -0.0551; in experiment [3] it was -0.0181; in experiment [4] it was 0.054.
In the same order, the values of `CN(C)C(=O)C(CCN1CCC(O)(c2ccc(Cl)cc2)CC1)(c1ccccc1)c1ccccc1` [Loperamide] + CC1(C)S[C@@H]2[C@H](NC(=O)Cc3ccccc3)C(=O)N2[C@H]1C(=O)O [PenicillinG] are 0.0464, -0.14, -0.068 and -0.249.
Regarding `CN(C)C(=O)C(CCN1CCC(O)(c2ccc(Cl)cc2)CC1)(c1ccccc1)c1ccccc1` [Loperamide] + CCCCCCCCCC(=O)N[C@@H]1[C@H]([C@@H]([C@H](O[C@H]1OC2=C3C=C4C=C2OC5=C(C=C(C=C5)[C@H]([C@H]6C(=O)N[C@@H](C7=C(C(=CC(=C7)O)OC8[C@H]([C@H]([C@@H]([C@H](O8)CO)O)O)O)C9=C(C=CC(=C9)[C@H](C(=O)N6)NC(=O)[C@@H]4NC(=O)[C@@H]1C2=CC(=CC(=C2)OC2=C(C=CC(=C2)[C@H](C(=O)N[C@H](CC2=CC(=C(O3)C=C2)Cl)C(=O)N1)N)O)O)O)C(=O)O)O[C@H]1[C@@H]([C@H]([C@@H]([C@H](O1)CO)O)O)NC(=O)C)Cl)CO)O)O [Teicoplanin], the Bliss interaction score in experiment [1] (main component drawn) is 0.0883; in experiment [2] (main component drawn), -0.114; in experiment [3] (main component drawn), -0.0955; in experiment [4] (main component drawn), -0.0953.
Consider `CN(C)C(=O)C(CCN1CCC(O)(c2ccc(Cl)cc2)CC1)(c1ccccc1)c1ccccc1` [Loperamide] + CC[C@H]1OC(=O)[C@H](C)C(=O)[C@H](C)[C@@H](O[C@@H]2O[C@H](C)C[C@H](N(C)C)[C@H]2O)[C@](C)(OC)C[C@@H](C)C(=O)[C@H](C)[C@H]2N(CCCCn3cnc(-c4cccnc4)c3)C(=O)O[C@]12C [Telithromycin], for which the Bliss interaction score in experiment [1] is 0.0814; in experiment [2] it was 0.0619; in experiment [3] it was -0.024; in experiment [4], 0.0977.
`CN(C)C(=O)C(CCN1CCC(O)(c2ccc(Cl)cc2)CC1)(c1ccccc1)c1ccccc1` [Loperamide] + CN[C@H](CC(C)C)C(=O)N[C@H]1C(=O)N[C@@H](CC(N)=O)C(=O)N[C@H]2C(=O)N[C@H]3C(=O)N[C@H](C(=O)N[C@H](C(=O)O)c4cc(O)cc(O)c4-c4cc3ccc4O)[C@H](O[C@H]3C[C@](C)(N)[C@@H](O)[C@H](C)O3)c3ccc(c(Cl)c3)Oc3cc2cc(c3O[C@@H]2O[C@H](CO)[C@@H](O)[C@H](O)[C@H]2O[C@H]2C[C@](C)(NCc3ccc(-c4ccc(Cl)cc4)cc3)[C@@H](O)[C@H](C)O2)Oc2ccc(cc2Cl)[C@H]1O [Oritavancin]: the Bliss interaction score was 0.0335 in experiment [1], -0.11 in experiment [2], -0.062 in experiment [3] and -0.0409 in experiment [4].
On to `CN(C)C(=O)C(CCN1CCC(O)(c2ccc(Cl)cc2)CC1)(c1ccccc1)c1ccccc1` [Loperamide] + CO[C@@]12[C@H](COC(N)=O)C3=C(C(=O)C(C)=C(N)C3=O)N1C[C@@H]1N[C@@H]12 [MitomycinC], for which the Bliss interaction score in experiment [1] is 0.0277; in experiment [2], 0.101; in experiment [3] it was -0.031; in experiment [4], 0.105.
In the same order, the values of `CN(C)C(=O)C(CCN1CCC(O)(c2ccc(Cl)cc2)CC1)(c1ccccc1)c1ccccc1` [Loperamide] + Oc1cc(Cl)ccc1Oc1ccc(Cl)cc1Cl [Triclosan] are 0.0255, -0.0746, 0.0213 and -0.179.
The matching figures for `CCN(CC)CCOC(=O)c1ccc(N)cc1` [Procaine] + C/C(=C\C(=O)OCCCCCCCCC(=O)O)C[C@@H]1OC[C@H](C[C@@H]2O[C@H]2[C@@H](C)[C@H](C)O)[C@@H](O)[C@H]1O [Pseudomonic acid]: 0.0611, 0.0122, 0.0207 and -0.0844.
Turning to `CCN(CC)CCOC(=O)c1ccc(N)cc1` [Procaine] + CC[C@H]1OC(=O)[C@H](C)C(=O)[C@H](C)[C@@H](O[C@@H]2O[C@H](C)C[C@H](N(C)C)[C@H]2O)[C@](C)(OC)C[C@@H](C)C(=O)[C@H](C)[C@H]2N(CCCCn3cnc(-c4cccnc4)c3)C(=O)O[C@]12C [Telithromycin], the Bliss interaction score in experiment [1] was -0.0224; in experiment [2], -0.0287; in experiment [3], 0.0289; in experiment [4], 0.0708.
The matching figures for `CCN(CC)CCOC(=O)c1ccc(N)cc1` [Procaine] + Oc1cc(Cl)ccc1Oc1ccc(Cl)cc1Cl [Triclosan]: 0.0507, 0.0864, -0.0125 and -0.0644.
Turning to `Cn1nnc(-c2ccc(-c3ccc(N4C[C@H](CO)OC4=O)cc3F)cn2)n1` [Tedizolid] + CCCCCCCCCC(=O)N[C@@H]1[C@H]([C@@H]([C@H](O[C@H]1OC2=C3C=C4C=C2OC5=C(C=C(C=C5)[C@H]([C@H]6C(=O)N[C@@H](C7=C(C(=CC(=C7)O)OC8[C@H]([C@H]([C@@H]([C@H](O8)CO)O)O)O)C9=C(C=CC(=C9)[C@H](C(=O)N6)NC(=O)[C@@H]4NC(=O)[C@@H]1C2=CC(=CC(=C2)OC2=C(C=CC(=C2)[C@H](C(=O)N[C@H](CC2=CC(=C(O3)C=C2)Cl)C(=O)N1)N)O)O)O)C(=O)O)O[C@H]1[C@@H]([C@H]([C@@H]([C@H](O1)CO)O)O)NC(=O)C)Cl)CO)O)O [Teicoplanin], the Bliss interaction score in experiment [1] (main component drawn) is 0.065; in experiment [2] (main component drawn), -0.083; in experiment [3] (main component drawn), 0.0811; in experiment [4] (main component drawn), 0.295.
`Cn1nnc(-c2ccc(-c3ccc(N4C[C@H](CO)OC4=O)cc3F)cn2)n1` [Tedizolid] + CC[C@H]1OC(=O)[C@H](C)C(=O)[C@H](C)[C@@H](O[C@@H]2O[C@H](C)C[C@H](N(C)C)[C@H]2O)[C@](C)(OC)C[C@@H](C)C(=O)[C@H](C)[C@H]2N(CCCCn3cnc(-c4cccnc4)c3)C(=O)O[C@]12C [Telithromycin]: the Bliss interaction score in experiment [1] is -0.0463; in experiment [2], -0.0684; in experiment [3], -0.0897; in experiment [4], -0.0527.
In the same order, the values of `Cn1nnc(-c2ccc(-c3ccc(N4C[C@H](CO)OC4=O)cc3F)cn2)n1` [Tedizolid] + CN(C)c1cc(NC(=O)CNC(C)(C)C)c(O)c2c1C[C@H]1C[C@H]3[C@H](N(C)C)C(O)=C(C(N)=O)C(=O)[C@@]3(O)C(O)=C1C2=O [Tigecycline] are -0.0434, -0.107, 0.0453 and -0.0764.
In the same order, the values of `Cn1nnc(-c2ccc(-c3ccc(N4C[C@H](CO)OC4=O)cc3F)cn2)n1` [Tedizolid] + COc1cc(Cc2cnc(N)nc2N)cc(OC)c1OC [Trimethoprim] are 0.0776, 0.215, 0.136 and -0.0785.
The matching figures for `Cn1nnc(-c2ccc(-c3ccc(N4C[C@H](CO)OC4=O)cc3F)cn2)n1` [Tedizolid] + Oc1cc(Cl)ccc1Oc1ccc(Cl)cc1Cl [Triclosan]: 0.0378, -0.153, 0.037 and -0.075.
